Experimental data published in BindingDB's records for doi:10.1021/jm000443d (University of California At San Diego, 2001).

Molecular target: Protein kinase C alpha type (Homo sapiens, UniProt P17252)
Test: Inhibition of Protein kinase C alpha

## O=C(N[C@@H]1CCCCCC1OC(=O)c1ccc(C(=O)C2C(O)=CC=CC2C(=O)O)c(O)c1)c1ccc(O)cc1 (stereo not given in full)
  IC50: 0.27 nM

## O=C(N[C@@H]1CS(=O)(=O)CCCC1OC(=O)c1ccc(C(=O)C2C(O)=CC=CC2C(=O)O)c(O)c1)c1ccc(O)cc1 (stereo not given in full)
  IC50: 9.6 nM

## O=C(N[C@@H]1CNCCC[C@H]1OC(=O)c1cc(O)c(C(=O)c2c(O)cccc2C(=O)O)c(O)c1)c1ccc(O)cc1 [Acyclic Balanol Analog (-)-1]
  IC50: 0.074 nM

## O=C(N[C@@H]1COCCCC1OC(=O)c1ccc(C(=O)C2C(O)=CC=CC2C(=O)O)c(O)c1)c1ccc(O)cc1 (stereo not given in full)
  IC50: 6.7 nM

## O=C(N[C@@H]1CSCCCC1OC(=O)c1ccc(C(=O)C2C(O)=CC=CC2C(=O)O)c(O)c1)c1ccc(O)cc1 (stereo not given in full)
  IC50: 3.3 nM
